Test results as given in ChEMBL document CHEMBL1240343, “Transition state analogs of 5'-methylthioadenosine nucleosidase disrupt quorum sensing” (Nat Chem Biol, 2009).
Activity calls are given as the source filed them. The calls are words filed in the database; no cut-off is given here.

Tests used:
Escherichia coli [1] = assay: Inhibition of Escherichia coli O157:H7 EDL933 biofilm production at 1 uM after 24 hrs; assay type: functional; settings: O157:H7 EDL933, 24 h
Escherichia coli [2] = assay: Antibacterial activity Escherichia coli O157:H7 EDL933 at 2.5 uM; assay type: functional, organism-based
Vibrio harveyi = assay: Inhibition of autoinducer-2 production in Vibrio harveyi BB120 assessed as inhibition of light induction by luminescence induction assay; assay type: functional; settings: Vibrio harveyi ATCC BAA-1116
[3] = Inhibition of Escherichia coli MTAN
Vibrio cholerae [4] = assay: Inhibition of Vibrio cholerae N16961 biofilm production at 1 uM after 24 hrs; assay type: functional; settings: N16961, 24 h
Escherichia coli [5] = assay: Antibacterial activity MTAN-deficient Escherichia coli assessed as induction of growth deffect at 0.5 uM after 16 hrs; assay type: functional, organism-based
Escherichia coli [6] = assay: Antibacterial activity Escherichia coli O157:H7 EDL933 at 1 uM; assay type: functional, organism-based
Escherichia coli [7] = assay: Antibacterial activity against Escherichia coli O157:H7 EDL933 at 1 uM after 24 hrs; assay type: functional, organism-based
Escherichia coli [8] = assay: Antibacterial activity Escherichia coli O157:H7 EDL933 assessed as induction of growth deffect at 0.5 uM after 16 hrs; assay type: functional, organism-based
[9] = molecular target: 5'-methylthioadenosine/S-adenosylhomocysteine nucleosidase (Escherichia coli O157:H7) (UniProt P0AF14); assay: (§1) Inhibition of Escherichia coli O157:H7 EDL933 MTAN-mediated autoinducer-2 production assessed as inhibition of light induction in quorum-sensing Vibrio harveyi BB120 by luminescence induction assay
Sequence of 5'-methylthioadenosine/S-adenosylhomocysteine nucleosidase (Escherichia coli O157:H7) (P0AF14 whole entry, looked up): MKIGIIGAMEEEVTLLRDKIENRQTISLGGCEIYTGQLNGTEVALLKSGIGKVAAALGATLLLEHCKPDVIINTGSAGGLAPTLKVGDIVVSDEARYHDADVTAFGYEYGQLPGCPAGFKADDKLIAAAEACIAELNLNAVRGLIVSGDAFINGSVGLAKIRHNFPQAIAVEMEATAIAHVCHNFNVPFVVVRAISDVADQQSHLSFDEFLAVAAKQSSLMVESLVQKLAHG

Vibrio cholerae [10] = assay: Antimicrobial activity against Vibrio cholerae N16961 assessed as effect on cell growth up to 1 uM; assay type: functional, organism-based
Vibrio cholerae [11] = assay: Antibacterial activity against Vibrio cholerae N16961 at 1 uM; assay type: functional, organism-based
Vibrio cholerae [12] = assay: Antibacterial activity against Vibrio cholerae N16961 at 2.5 uM; assay type: functional, organism-based
Vibrio cholerae [13] = assay: Antibacterial activity against Vibrio cholerae N16961 at 1 uM after 24 hrs; assay type: functional, organism-based
[14] = molecular target: T1, 5'-methylthioadenosine/S-adenosylhomocysteine nucleosidase (Vibrio cholerae serotype O1 (strain ATCC 39315 / El Tor Inaba N16961), UniProt Q9KPI8); assay: Binding affinity to His-tagged Vibrio cholerae recombinant MTAN expressed in Escherichia coli […]
T1 sequence (Q9KPI8 whole entry): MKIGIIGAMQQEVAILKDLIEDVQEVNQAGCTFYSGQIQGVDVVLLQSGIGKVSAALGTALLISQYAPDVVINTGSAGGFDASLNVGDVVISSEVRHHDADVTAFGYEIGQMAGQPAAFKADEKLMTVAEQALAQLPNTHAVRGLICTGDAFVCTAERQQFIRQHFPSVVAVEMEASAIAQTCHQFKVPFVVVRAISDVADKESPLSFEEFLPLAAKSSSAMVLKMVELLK

[15] = molecular target: T2, 5'-methylthioadenosine/S-adenosylhomocysteine nucleosidase (Vibrio cholerae serotype O1 (strain ATCC 39315 / El Tor Inaba N16961)) (UniProt Q9KPI8); settings: 1 uM
T2 sequence (whole entry): T1 sequence (Q9KPI8 whole entry)

[16] = molecular target: T2, 5'-methylthioadenosine/S-adenosylhomocysteine nucleosidase (Vibrio cholerae serotype O1 (strain ATCC 39315 / El Tor Inaba N16961)); settings: 1 uM; remark: listed apart in the source
[17] = molecular target: 5'-methylthioadenosine/S-adenosylhomocysteine nucleosidase (Escherichia coli O157:H7, UniProt P0AF14); assay: as §1
Sequence of 5'-methylthioadenosine/S-adenosylhomocysteine nucleosidase (Escherichia coli O157:H7, UniProt P0AF14) (P0AF14 whole entry): as the sequence (P0AF14 whole entry, looked up) above

Escherichia coli [18] = assay: Ratio of Km to Ki for Escherichia coli MTAN

## CCCCSC[C@H]1CN(Cc2c[nH]c3c(N)ncnc23)C[C@@H]1O
Escherichia coli [1]
  inhibition at 1 µM: 18%
Escherichia coli [2]
  Activity: inactive
Vibrio harveyi
  inhibition: inactive
[3]
  Kd: 0.3 pM
Vibrio cholerae [4]
  inhibition at 1 µM: 71%
Escherichia coli [5]
  Activity: inactive
Escherichia coli [6]
  Activity: inactive
Escherichia coli [7]
  Activity: inactive
Escherichia coli [8]
  Activity: inactive
[9]
  inhibition: Dose-dependent effect
Vibrio cholerae [10]
  Activity: inactive
Vibrio cholerae [11]
  Activity: inactive
Vibrio cholerae [12]
  Activity: inactive
Vibrio cholerae [13]
  Activity: inactive

## Nc1ncnc2c([C@@H]3N[C@H](CSc4ccc(Cl)cc4)[C@@H](O)[C@H]3O)c[nH]c12
[14]
  Kd: 2200 pM

## CCSC[C@H]1N[C@@H](c2c[nH]c3c(N)ncnc23)[C@H](O)[C@@H]1O
[14]
  Kd: 1600 pM

## CSC[C@H]1CN(Cc2c[nH]c3c(N)ncnc23)C[C@@H]1O
[3]
  Kd: 0.2 pM
[15]
  inhibition: Active
[16]
  inhibition: Active
Escherichia coli [5]
  Activity: inactive
Escherichia coli [8]
  Activity: inactive
[9]
  inhibition: Dose-dependent effect
[17]
  IC50: 600000 pM
Vibrio cholerae [10]
  Activity: inactive

## CCSC[C@H]1CN(Cc2c[nH]c3c(N)ncnc23)C[C@@H]1O
Vibrio cholerae [10]
  Activity: inactive

## Nc1ncnc2c([C@@H]3N[C@H](CSCc4ccccc4)[C@@H](O)[C@H]3O)c[nH]c12
[14]
  Kd: 2100 pM

## Nc1ncnc2c(CN3C[C@H](CSc4ccc(Cl)cc4)[C@@H](O)C3)c[nH]c12
[14]
  Kd: 330 pM
[3]
  Kd: 0.047 pM
Escherichia coli [18]
  Ratio: 1e+08
Vibrio cholerae [10]
  Activity: inactive

## CSC[C@H]1N[C@@H](c2c[nH]c3c(N)ncnc23)[C@H](O)[C@@H]1O
[14]
  Kd: 10000 pM

## Nc1ncnc2c(CN3C[C@H](CSCc4ccccc4)[C@@H](O)C3)c[nH]c12
[14]
  Kd: 64 pM
